The structures appear in SMILES notation.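 Where inhibition never reached the appropriate level, the endpoint shown equals the highest concentration tested. Otherwise, values were interpolated linearly from a five-concentration, 48-hour dose response in 96-well plates. Here, GI50 denotes the concentration required for 50% inhibition of growth.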 Calls of active or inactive are those of the source. Cut-off read from the data, not from the text of the source: active = GI50 up to about 1.1 µM and inactive = higher.

Test systems include OVCAR-3; T47D; NCI-H460; SF-539; PC-3; HL-60; NCI-H226; A549; HOP-62; SF-268; MOLT-4; RXF 393; HCT-15; UO-31; SK-MEL-28; SNB-19; SNB-75; ACHN; SN12C; NCI/ADR-RES.
Test in all cases: DTP human tumour cell line panel, 48 h

With `OCCCCCCOc1ccc(-c2cc(-c3ccccn3)nc(-c3ccccn3)c2)cc1`, the GI50 is 0.22 µM (active) with OVCAR-3; 0.148 µM (active) with T47D; 0.104 µM (active) in the assay on NCI-H460; 0.143 µM (active) with SF-539; 0.034 µM (active) in the assay with PC-3; 0.0853 µM (active) in the assay with HL-60. In addition, the GI50 with NCI-H226 was 0.104 µM (active); with A549, 0.23 µM (active); with HOP-62 it was 0.172 µM (active); in the assay on SF-268, 0.0668 µM (active); with MOLT-4, 0.0274 µM (active); in the assay with RXF 393, 0.239 µM (active). The GI50 with HCT-15 was 0.109 µM; with UO-31 it was 0.202 µM (active); in the assay with SK-MEL-28 it was 0.248 µM (active); in the assay on SNB-19 it was 0.158 µM (active); with SNB-75, 0.637 µM (active); with ACHN it was 0.108 µM (active). Further, the GI50 in the assay on SN12C is 0.424 µM (active).

Consider `COc1cccc(N2N=C3c4ccccc4-n4c(nc5ccccc54)C3C2N)c1` (stereo unspecified), for which the GI50 in the assay with OVCAR-3, in the assay on T47D, in the assay with NCI-H460, in the assay with SF-539, in the assay on NCI/ADR-RES and with PC-3 was > 100 µM (inactive) throughout. Further, the GI50 was > 100 µM (inactive) in the assay with HL-60; > 100 µM (inactive) with A549; > 100 µM (inactive) in the assay on HOP-62; > 100 µM (inactive) in the assay on SF-268; more than 100 µM in the assay on HCT-15; > 100 µM (inactive) in the assay on UO-31. The GI50 with SK-MEL-28, in the assay with SNB-19, in the assay with SNB-75, in the assay with ACHN and in the assay with SN12C was > 100 µM (inactive) each time.

`CN(C)c1nc2oc(-c3ccccc3)c(-c3ccccc3)c2c2nnnn12`: the GI50 with T47D is > 100 µM (inactive); in the assay on SF-539, > 100 µM (inactive); in the assay on NCI/ADR-RES it was > 100 µM (inactive); in the assay with HL-60, 19.8 µM (inactive); in the assay on NCI-H226, > 100 µM (inactive); in the assay with A549 it was > 100 µM (inactive). Besides, the GI50 in the assay with SF-268 was > 100 µM (inactive); in the assay on MOLT-4 it was > 100 µM (inactive); in the assay with RXF 393, > 100 µM (inactive); in the assay on HCT-15, more than 100 µM; in the assay with UO-31, > 100 µM (inactive); in the assay with SK-MEL-28, > 100 µM (inactive). The GI50 with SNB-19 was > 100 µM (inactive); in the assay on SNB-75, 41.1 µM (inactive); in the assay with ACHN it was > 100 µM (inactive); in the assay on SN12C, > 100 µM (inactive).

Turning to `CCc1nc(N)nc(N)c1-c1ccc(Cl)c(N=[N+]=[N-])c1`, the GI50 with OVCAR-3 was 13.4 µM (inactive); with T47D, 25.3 µM (inactive); in the assay on SF-539, 4.65 µM (inactive); with NCI/ADR-RES, 6.31 µM (inactive); in the assay on NCI-H226 it was 28.4 µM (inactive); in the assay with HOP-62, 9.53 µM (inactive). Moreover, the GI50 is 6.4 µM (inactive) with SF-268, 15.4 µM (inactive) in the assay on SK-MEL-28, 18.8 µM (inactive) in the assay on SNB-75 and 9.38 µM (inactive) in the assay on SN12C.

For the compound `CCOP(=O)(OCC)/C(C#N)=C/c1ncc[nH]1`, the GI50 is > 100 µM (inactive) in the assay with OVCAR-3; > 100 µM (inactive) in the assay on NCI-H460; 8.32 µM (inactive) in the assay with SF-539; > 100 µM (inactive) with NCI/ADR-RES; > 100 µM (inactive) with PC-3; > 100 µM (inactive) in the assay with HL-60. The GI50 in the assay on NCI-H226, in the assay with A549, in the assay on HOP-62, with SF-268, in the assay with MOLT-4 and with RXF 393 was > 100 µM (inactive) in each case. The GI50 with HCT-15 was more than 10 µM; in the assay on UO-31 it was > 100 µM (inactive); with SK-MEL-28 it was > 100 µM (inactive); in the assay with SNB-19 it was > 100 µM (inactive); in the assay on SNB-75 it was > 100 µM (inactive); in the assay with ACHN, > 100 µM (inactive). The GI50 in the assay with SN12C was > 100 µM (inactive).
